# Where a SMILES comes first, the peptide text is derived from it. Bridges are numbered along the chain shown (N, C = ends). [ ]: non-standard residue; d: D form. The star is where a group is joined. ξ: configuration not given here. Phe(4-COOH) = N[C@@H](Cc1ccc(C(=O)O)cc1)C(=O)O; Bip = N[C@@H](Cc1ccc(-c2ccccc2)cc1)C(=O)O; Phe(3-Me) = Cc1cccc(C[C@H](N)C(=O)O)c1; Val(3-OH) = CC(C)(O)[C@H](N)C(=O)O; 4Pal = N[C@@H](Cc1ccncc1)C(=O)O; Aad = N[C@@H](CCCC(=O)O)C(=O)O; Cha = N[C@@H](CC1CCCCC1)C(=O)O; Cit = NC(=O)NCCC[C@H](N)C(=O)O; Ile(3ξ) = CCC(C)[C@H](N)C(=O)O; Thr(3ξ) = CC(O)[C@H](N)C(=O)O; dOrn = NCCC[C@@H](N)C(=O)O; Carboxymethyl = O=C(O)C*; NMeA = CN[C@@H](C)C(=O)O; Orn = NCCC[C@H](N)C(=O)O; Aun = NCCCCCCCCCCC(=O)O; Dab = NCC[C@H](N)C(=O)O; Dap = NC[C@H](N)C(=O)O; AEEA = NCCOCCOCC(=O)O
# Biological target: T1, PD-1/PD-L1 interaction (PE-labeled human PD-L1-Ig binding to Jurkat cell line over-expressing human PD-1) (Homo sapiens, UniProt Q15116)
# T1 construct: expressed in transfected cells; host or cells: Jurkat
# Test: Jurkat-PD-1 Cell Binding High-Content Screening Assay (CBA)
# Conditions: Jurkat-hPD-1 cells, PE-labeled PD-L1-Ig 20 nM final; read-out: Jurkat HPD1 PDL1 IC50
# How it was run: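 Jurkat cells overexpressing human PD-1 (8×10^3/well, DMEM + 10% FCS) preincubated with compound 2 h at 37 °C, then PE-labelled human PD-L1-Ig (20 nM final) for 1 h. Cells fixed in paraformaldehyde with Hoechst 33342; bound PD-L1 quantified by high-content imaging.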
# T1 sequence (Q15116 25-288): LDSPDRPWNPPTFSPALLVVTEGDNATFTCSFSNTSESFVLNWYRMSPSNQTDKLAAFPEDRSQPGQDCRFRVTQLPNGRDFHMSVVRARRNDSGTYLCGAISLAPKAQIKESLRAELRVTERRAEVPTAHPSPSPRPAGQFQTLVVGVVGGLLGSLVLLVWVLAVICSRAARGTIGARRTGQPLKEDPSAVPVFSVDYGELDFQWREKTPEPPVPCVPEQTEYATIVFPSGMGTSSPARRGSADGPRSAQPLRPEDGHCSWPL
row,Compound,IC50
1,Cc1cccc(C[C@@H]2NC(=O)[C@H](CC(=O)O)NC(=O)[C@H](Cc3ccc(OCC(=O)O)cc3)NC(=O)[C@H]([C@@H](C)O)NC(=O)CSC[C@@H](C(=O)N[C@@H](CCN)C(=O)NCCOCCOCC(=O)NCCCCCCCCCCC(=O)O)NC(=O)[C@H]([C@@H](C)O)NC(=O)[C@H](C(C)C)NC(=O)[C@H](CC3CCCCC3)NC(=O)[C@H](CC(N)=O)NC(=O)[C@@H](CC(C)C)NC(=O)[C@H](C)N(C)C(=O)[C@H](Cc3ccc(OCC(=O)O)cc3)NC(=O)[C@H](Cc3ccc(-c4ccccc4)cc3)NC(=O)[C@H](Cc3ccc(OCC(=O)O)cc3)NC2=O)c1 [Example 1362] ({CH2CO}-TY(Carboxymethyl)D[Phe(3-Me)]Y(Carboxymethyl)[Bip]Y(Carboxymethyl)[NMeA][dL]N[Cha]VTC[Dab][AEEA][Aun]-OH; thioether N-14),25.1 nM
2,Cc1cccc(C[C@@H]2NC(=O)[C@H](CC(=O)O)NC(=O)[C@H](Cc3ccc(OCC(=O)O)cc3)NC(=O)[C@H](CN)NC(=O)CSC[C@@H](C(=O)NCCCCCCCCCCC(=O)O)NC(=O)[C@H](CCCN)NC(=O)[C@H](C(C)C)NC(=O)[C@H](CC3CCCCC3)NC(=O)[C@H](CCN)NC(=O)[C@@H](CC(C)C)NC(=O)[C@H](C)N(C)C(=O)[C@H](Cc3ccc(O)cc3)NC(=O)[C@H](Cc3ccc(-c4ccccc4)cc3)NC(=O)[C@H](C(C)C)NC2=O)c1 [Example 1319] ({CH2CO}-[Dap]Y(Carboxymethyl)D[Phe(3-Me)]V[Bip]Y[NMeA][dL][Dab][Cha]V[Orn]C[Aun]-OH; thioether N-14),42 nM
3,CC(C)C[C@@H]1NC(=O)[C@H](Cc2c[nH]c3ccccc23)NC(=O)[C@H](CC(=O)O)NC(=O)[C@H](Cc2ccc(C(=O)O)cc2)NC(=O)[C@H](Cc2ccc(OCC(=O)O)cc2)NC(=O)CSC[C@@H](C(=O)NCCOCCOCC(=O)NCCCCCCCCCCC(=O)O)NC(=O)[C@H](CCC(=O)O)NC(=O)[C@H](C(C)(C)O)NC(=O)[C@H](CC2CCCCC2)NC(=O)[C@H](CCN)NC(=O)[C@@H](CC(C)C)NC(=O)[C@H](C)N(C)C(=O)[C@H](C(C)C)NC(=O)[C@H](Cc2ccc(-c3ccccc3)cc2)NC1=O [Example 1114] ({CH2CO}-Y(Carboxymethyl)[Phe(4-COOH)]DWL[Bip]V[NMeA][dL][Dab][Cha][Val(3-OH)]EC[AEEA][Aun]-OH; thioether N-14),43.7 nM
4,CC[C@H](C)[C@@H]1NC(=O)[C@H](Cc2ccc(-c3ccccc3)cc2)NC(=O)[C@H](CC(C)C)NC(=O)[C@H](Cc2c[nH]c3ccccc23)NC(=O)[C@H](CC(=O)O)NC(=O)[C@H](Cc2ccc(C(=O)O)cc2)NC(=O)[C@H](Cc2ccc(OCC(=O)O)cc2)NC(=O)CSC[C@@H](C(=O)N[C@@H](CCCNC(=N)N)C(=O)NCCCCCCCCCCC(=O)O)NC(=O)[C@H](CO)NC(=O)[C@H](C(C)C)NC(=O)[C@H](CC2CCCCC2)NC(=O)[C@H](CCN)NC(=O)[C@@H](CC(C)C)NC(=O)[C@H](C)N(C)C1=O [Example 1074] ({CH2CO}-Y(Carboxymethyl)[Phe(4-COOH)]DWL[Bip]I[NMeA][dL][Dab][Cha]VSCR[Aun]-OH; thioether N-14),43.4 nM

# Continued, values first:
row,IC50,Compound
1,24.4 nM,CC(C)C[C@@H]1NC(=O)[C@H](Cc2c[nH]c3ccccc23)NC(=O)[C@H](CC(=O)O)NC(=O)[C@H](Cc2ccncc2)NC(=O)[C@H](Cc2ccc(OCC(=O)O)cc2)NC(=O)CSC[C@@H](C(=O)N[C@@H](CCCNC(N)=O)C(=O)NCCOCCOCC(=O)NCCCCCCCCCCC(=O)O)NC(=O)[C@H](CCCNC(N)=O)NC(=O)[C@H](C(C)C)NC(=O)[C@H](CC2CCCCC2)NC(=O)[C@H](CCN)NC(=O)[C@@H](CC(C)C)NC(=O)[C@H](C)N(C)C(=O)[C@H](C(C)C)NC(=O)[C@H](Cc2ccc(-c3ccccc3)cc2)NC1=O [Example 2167] ({CH2CO}-Y(Carboxymethyl)[4Pal]DWL[Bip]V[NMeA][dL][Dab][Cha]V[Cit]C[Cit][AEEA][Aun]-OH; thioether N-14)
2,23.3 nM,Cc1cccc(C[C@@H]2NC(=O)[C@H](CC(=O)O)NC(=O)[C@H](Cc3ccc(OCC(=O)O)cc3)NC(=O)[C@H]([C@@H](C)O)NC(=O)CSC[C@@H](C(=O)N[C@@H](CCN)C(=O)N[C@@H](Cc3cn(CC(=O)NCCCNC(=O)c4cc(F)c(F)c(F)c4)nn3)C(=O)NCCCCCCCCCCC(=O)O)NC(=O)[C@H]([C@@H](C)O)NC(=O)[C@H](C(C)C)NC(=O)[C@H](CC3CCCCC3)NC(=O)[C@H](CCN)NC(=O)[C@@H](CC(C)C)NC(=O)[C@H](C)N(C)C(=O)[C@H](Cc3ccc(OCC(=O)O)cc3)NC(=O)[C@H](Cc3ccc(-c4ccccc4)cc3)NC(=O)[C@H](Cc3ccc(C(=O)O)cc3)NC2=O)c1 [Example 1241]
3,19.9 nM,CC(C)C[C@@H]1NC(=O)[C@H](Cc2c[nH]c3ccccc23)NC(=O)[C@H](CC(=O)O)NC(=O)[C@H](Cc2ccc(C(=O)O)cc2)NC(=O)[C@H](Cc2ccc(OCC(=O)O)cc2)NC(=O)CSC[C@@H](C(=O)N[C@@H](CCCN)C(=O)NCCOCCOCC(=O)NCCCCCCCCCCC(=O)O)NC(=O)[C@H](CCCCN)NC(=O)[C@H](C(C)C)NC(=O)[C@H](CC2CCCCC2)NC(=O)[C@H](CCCC(=O)O)NC(=O)[C@@H](CC(C)C)NC(=O)[C@H](C)N(C)C(=O)[C@H](C(C)C)NC(=O)[C@H](Cc2ccc(-c3ccccc3)cc2)NC1=O [Example 2152] ({CH2CO}-Y(Carboxymethyl)[Phe(4-COOH)]DWL[Bip]V[NMeA][dL][Aad][Cha]VKC[Orn][AEEA][Aun]-OH; thioether N-14)
4,19.6 nM,Cc1cccc(C[C@@H]2NC(=O)[C@H](CC(=O)O)NC(=O)[C@H](Cc3ccc(OCC(=O)O)cc3)NC(=O)[C@H](C(C)O)NC(=O)CSC[C@@H](C(=O)N[C@@H](CCN)C(=O)NCCOCCOCC(=O)NCCCCCCCCCCC(=O)O)NC(=O)[C@H](CC(=O)O)NC(=O)[C@H](C(C)C)NC(=O)[C@H](CC3CCCCC3)NC(=O)[C@H](CCN)NC(=O)[C@@H](CC(C)C)NC(=O)[C@H](C)N(C)C(=O)[C@H](Cc3ccc(OCC(=O)O)cc3)NC(=O)[C@H](Cc3ccc(-c4ccccc4)cc3)NC(=O)[C@H](Cc3ccc(C(=O)O)cc3)NC2=O)c1 (stereo partly drawn) [Example 2479] ({CH2CO}-[Thr(3ξ)]Y(Carboxymethyl)D[Phe(3-Me)][Phe(4-COOH)][Bip]Y(Carboxymethyl)[NMeA][dL][Dab][Cha]VDC[Dab][AEEA][Aun]-OH; thioether N-14)
5,18.5 nM,CCC(C)[C@@H]1NC(=O)[C@H](Cc2ccc(-c3ccccc3)cc2)NC(=O)[C@H](CC(C)C)NC(=O)[C@H](Cc2c[nH]c3ccccc23)NC(=O)[C@H](CC(=O)O)NC(=O)[C@H](Cc2ccc(O)cc2)NC(=O)[C@H](Cc2ccncc2)NC(=O)CSC[C@@H](C(=O)N[C@H](CCCN)C(=O)NCCOCCOCC(=O)NCCCCCCCCCCC(=O)O)NC(=O)[C@H](CO)NC(=O)[C@H](C(C)C)NC(=O)[C@H](CC2CCCCC2)NC(=O)[C@H](CCN)NC(=O)[C@@H](CC(C)C)NC(=O)[C@H](C)N(C)C1=O (stereo partly drawn) [Example 2086] ({CH2CO}-[4Pal]YDWL[Bip][Ile(3ξ)][NMeA][dL][Dab][Cha]VSC[dOrn][AEEA][Aun]-OH; thioether N-14)
6,18.1 nM,CC(C)C[C@@H]1NC(=O)[C@H](Cc2c[nH]c3ccccc23)NC(=O)[C@H](CC(=O)O)NC(=O)[C@H](Cc2ccc(C(=O)O)cc2)NC(=O)[C@H](Cc2ccc(OCC(=O)O)cc2)NC(=O)CSC[C@@H](C(=O)N[C@@H](CC(N)=O)C(=O)NCCOCCOCC(=O)NCCCCCCCCCCC(=O)O)NC(=O)[C@H](CO)NC(=O)[C@H](C(C)(C)O)NC(=O)[C@H](CC2CCCCC2)NC(=O)[C@H](CCN)NC(=O)[C@@H](CC(C)C)NC(=O)[C@H](C)N(C)C(=O)[C@H](C(C)C)NC(=O)[C@H](Cc2ccc(-c3ccccc3)cc2)NC1=O [Example 1413] ({CH2CO}-Y(Carboxymethyl)[Phe(4-COOH)]DWL[Bip]V[NMeA][dL][Dab][Cha][Val(3-OH)]SCN[AEEA][Aun]-OH; thioether N-14)
7,14.1 nM,CC(C)C[C@@H]1NC(=O)[C@H](Cc2c[nH]c3ccccc23)NC(=O)[C@H](CC(=O)O)NC(=O)[C@H](Cc2ccncc2)NC(=O)[C@H](Cc2ccc(OCC(=O)O)cc2)NC(=O)CSC[C@@H](C(=O)N[C@@H](CCN)C(=O)NCCCCCCCCCCC(=O)O)NC(=O)[C@H](CCC(=O)O)NC(=O)[C@H](C(C)C)NC(=O)[C@H](CC2CCCCC2)NC(=O)[C@H](CCN)NC(=O)[C@@H](CC(C)C)NC(=O)[C@H](C)N(C)C(=O)[C@H](C(C)C)NC(=O)[C@H](Cc2ccc(-c3ccccc3)cc2)NC1=O [Example 1330] ({CH2CO}-Y(Carboxymethyl)[4Pal]DWL[Bip]V[NMeA][dL][Dab][Cha]VEC[Dab][Aun]-OH; thioether N-14)

# Same assay, conditions: PE-labeled PD-L1-Ig 20 nM final, Jurkat-hPD-1 cells; read-out: Jurkat HPD1 PDL1 IC50
row,Compound,IC50
1,Cc1cccc(C[C@@H]2NC(=O)[C@H](CC(=O)O)NC(=O)[C@H](Cc3ccc(OCC(=O)O)cc3)NC(=O)[C@H](C(C)O)NC(=O)CSC[C@@H](C(=O)N[C@@H](CCN)C(=O)NCCOCCOCC(=O)NCCOCCOCC(=O)NCCCCCCCCCCC(=O)O)NC(=O)[C@H](CCC(=O)O)NC(=O)[C@H](C(C)(C)O)NC(=O)[C@H](CC3CCCCC3)NC(=O)[C@H](CCN)NC(=O)[C@@H](CC(C)C)NC(=O)[C@H](C)N(C)C(=O)[C@H](Cc3ccc(C(=O)O)cc3)NC(=O)[C@H](Cc3ccc(-c4ccccc4)cc3)NC(=O)[C@H](Cc3ccc(C(=O)O)cc3)NC2=O)c1 (stereo partly drawn) [Example 2537] ({CH2CO}-[Thr(3ξ)]Y(Carboxymethyl)D[Phe(3-Me)][Phe(4-COOH)][Bip][Phe(4-COOH)][NMeA][dL][Dab][Cha][Val(3-OH)]EC[Dab][AEEA][AEEA][Aun]-OH; thioether N-14),17.1 nM

# — patent publication US20260070945A1, “MACROCYCLIC IMMUNOMODULATORS” (Bristol-Myers Squibb Company, priority 2022, published 2026)
